Reference: patent US5563149A, “Aqueous solutions of pyridone carboxylic acids” (Cheil Foods & Chemicals, Inc., priority 1994, dated 1996)
≈ marks a conversion by molar mass, not a printed value.

What was measured:
[1] = solubility in water (without solubilizing agent); assay type: physicochemical; conditions: no acid added
[2] = bioavailability and half-life; assay type: in vivo; conditions: compared with quinolone drugs commercially available or in development
[3] = test system: gram-negative and gram-positive bacteria; assay: in vitro antibacterial activity (gram-negative and gram-positive bacteria); assay type: cell-based
[4] = Solubility of compound A in water with added acid or amino acid, and pH of the saturated solution; assay type: physicochemical; conditions: for solubility at 4 h: water, per ml of water
Experimental: The organic acids suitable as solubilizing agents are chosen depending on the correlationship between the organic acid and the physical properties of the selected quinolone compound. Therefore, a varity of organic acids and amino acids were evaluated to determine whether certain acids are suitable as solubilizing agents capable of increasing the water solubility of compound A and the pH of the aqueous solution is suitable for injection and/or infusion solutions.
Exemplary active substance in practicing the present invention is compound A. The test method of the solubility is set forth as follows:
Compound A was mixed with an organic acid or an amino acid in the mole ratios between 0.5 and 6 before water was added with reflux. Then, the resulting solution was rigorously shaken with stirring for 5 minutes so that it was made homogeneous. After the homogenous solution was left to stand at elevated temperature for 4 hours, it was extracted through 0.45 micro of membrane filter. The amounts of active substances present in extracts were quantified by high pressure liquid chromatography.

[5] = with asparagine, glutamic acid or gluconic acid; Korean Patent Application Publication No. 89-2040; cited from earlier work

C[C@]12C[C@@H](N)[C@H]1CN(c1nc3c(cc1F)c(=O)c(C(=O)O)cn3C1CC1)C2 (relative stereo) [compound A, 1-cyclopropyl-6-fluoro-l,4-dihydro-4-oxo-7-([1α, 5α,6β]6-amino-1-methyl-3-azabicyclo[3.2.0]heptan-3-yl)-1,8-naphtyridine-3-carboxylic acid]
solubility in water [1]: not substantially soluble or little soluble in water | bioavailability [2]: better | half-life [2]: better | antibacterial activities compared with Lomefloxacin and Ofloxacin [3]: superior | pH of saturated solution ([4]; compound A with Alanine): 6.4 | pH of saturated solution ([4]; compound A with Arginine): 10.0 | pH of saturated solution ([4]; compound A with Asparagine): 6.2 | pH of saturated solution ([4]; compound A with Aspartic acid): 5.3 | pH of saturated solution ([4]; compound A with Cinnamic acid): 1.8 | pH of saturated solution ([4]; compound A with Galacturonic (acid)): 3.3 | pH of saturated solution ([4]; compound A with Gluconic acid): 3.3 | pH of saturated solution ([4]; compound A with Gluconic acid lactone): 3.6 | pH of saturated solution ([4]; compound A with Glutamine): 6.4 | pH of saturated solution ([4]; compound A with Glutaric acid): 3.8 | pH of saturated solution ([4]; compound A with Histidine): 7.6 | pH of saturated solution ([4]; compound A with Hydrochloric acid): 2.0 | pH of saturated solution ([4]; compound A with Isoleucine): 6.4 | pH of saturated solution ([4]; compound A with L-cysteine): 6.2 | pH of saturated solution ([4]; compound A with L-valine): 6.4 | pH of saturated solution ([4]; compound A with Malic acid): 3.4 | pH of saturated solution ([4]; compound A with Methionine): 6.4 | pH of saturated solution ([4]; compound A with Oxalic acid): 4.2 | pH of saturated solution ([4]; compound A with Succinic acid): 4.0 | pH of saturated solution ([4]; compound A with Threonine): 6.3 | solubility at 4 h ([4]; with Alanine): 1300 µg/mL (≈ 3.49 mM) | solubility at 4 h ([4]; with Arginine): 8200 µg/mL (≈ 22 mM) | solubility at 4 h ([4]; with Asparagine): 2100 µg/mL (≈ 5.64 mM) | solubility at 4 h ([4]; with Aspartic acid): 37600 µg/mL (≈ 101 mM) | solubility at 4 h ([4]; with Cinnamic acid): 2100 µg/mL (≈ 5.64 mM) | solubility at 4 h ([4]; with Galacturonic (acid)): 18300 µg/mL (≈ 49.1 mM) | solubility at 4 h ([4]; with Gluconic acid lactone): 28100 µg/mL (≈ 75.5 mM) | solubility at 4 h ([4]; with Gluconic acid): 33400 µg/mL (≈ 89.7 mM) | solubility at 4 h ([4]; with Glutamine): 1600 µg/mL (≈ 4.3 mM) | solubility at 4 h ([4]; with Glutaric acid): 12100 µg/mL (≈ 32.5 mM) | solubility at 4 h ([4]; with Histidine): 2100 µg/mL (≈ 5.64 mM) | solubility at 4 h ([4]; with Hydrochloric acid): 44300 µg/mL (≈ 119 mM) | solubility at 4 h ([4]; with Isoleucine): 1400 µg/mL (≈ 3.76 mM) | solubility at 4 h ([4]; with L-cysteine): 2300 µg/mL (≈ 6.18 mM) | solubility at 4 h ([4]; with L-valine): 1300 µg/mL (≈ 3.49 mM) | solubility at 4 h ([4]; with Malic acid): 48700 µg/mL (≈ 131 mM) | solubility at 4 h ([4]; with Methionine): 1500 µg/mL (≈ 4.03 mM) | solubility at 4 h ([4]; with Oxalic acid): 3500 µg/mL (≈ 9.4 mM) | solubility at 4 h ([4]; with Succinic acid): 47600 µg/mL (≈ 128 mM) | solubility at 4 h ([4]; with Threonine): 1500 µg/mL (≈ 4.03 mM) | solubility of compound A / pH of the resulting solution (in words) ([4]; with glutaric acid, cinnamic acid, galacturonic acid, glutamine, isoleusine, threonine, histidine, L-cysteine, alanine, arginine, L-valine, methionine or oxaline): did not substantilly improve the solubility of compound A or the pH of the resulting solution is unsuitable as injection and/or infusion solutions

CCn1cc(C(=O)O)c(=O)c2cc(F)c(N3CCNCC3)nc21 [Enoxacin]
deposits in solutions [5]: do not lead to deposits
